Reference: PubChem BioAssay AID1918994 (Molecular Pharmacology Branch, DTP, NCI, 2023)
Several values for one entry are separate records, joined by “and”; a condition that tells them apart may be missing. Identical values can stand only once.

Test system: 292921-168-R-J2-PDC complex spheroid growth
Experiment: Anticancer human tumor 292921-168-R-J2-PDC patient-derived pancreatic carcinoma cell line growth inhibition [AhR]
Details: for viability, T/C: stronger effect = lower value
Description: Multicellular complex tumor spheroid response to aryl hydrocarbon receptor antagonists in combination with a variety of drugs and investigational agents in selected tumor cell lines
The current study was undertaken to assess response to aryl hydrocarbon receptor antagonists in combination with standard-of-care drugs and investigational agents in solid tumor complex spheroid models. Complex spheroids include a stromal component modeled by human endothelial cells (HUVEC) and fibroblasts modeled by human mesenchymal stem cells (MSCs). The concentration ranges selected for each drug and investigational agent were based upon clinically achievable concentrations if the clinical Cmax of the agent was known.
Compounds. The drugs and investigational agents: BAY 2416964 (NSC825713), GNF351 (NSC835774), CH-223191 (NSC835775), CPI-455 (NSC825282), aza-TdCyd (NSC777586), decitabine (NSC127716), belinostat (NSC758774), entinostat (NSC756642), pevonedistat (NSC761192), tazemetostat (NSC777109), talazoparib (NSC765396), olaparib (NSC753686), selinexor (NSC780203), nedisertib (M3814, NSC802822), bortezomib (NSC756655), venetoclax (NSC766270), doxorubicin (NSC123127), elimusertib (BAY189344, NSC800525), ceralasertib (AZD6738, NSC777638), TAK-243 (NSC785004), alisertib (NSC759677), etoposide (NSC141540), topotecan (NSC609699), eribulin (NSC707389), gemcitabine (NSC613327), carboplatin (NSC241240), cisplatin (NSC119875), and SN-38 (NSC673596) were obtained from the National Cancer Institute (NCI) Developmental Therapeutics Program Chemical Repository (32). The FDA-approved anticancer drug set is available from the Developmental Therapeutics Program at https://dtp.cancer.gov/organization/dscb/obtaining/available plates.htm. […] The stock solutions were prepared in dimethyl sulfoxide (DMSO, Sigma-Aldrich, St. Louis, MO, cat. D2650), except for the platinum compounds which were prepared in saline (Quality Biological, Gaithersburg, MD, cat. 114-055-101), at 800-fold the tested concentration and stored at -70 degrees C prior to their use. All drugs and investigational agents were tested over a range starting from a high concentration at or near the clinical Cmax and decreasing in half-log increments. If the clinical Cmax for an agent had not been determined, the highest concentration tested was 10 microM (Table 1).
Cell Culture. All cells were maintained in an incubator at 37 degrees C and 5% CO2 with 95% humidity. The PDC lines were cultured according to standard operating procedures established by the NCI PDMR (https://pdmr.cancer.gov). Briefly, all PDCs were thawed and cultured in Matrigel-coated flasks prepared with a working solution of 1X Ham's F-12 nutrient mix, without supplementation (Invitrogen, Waltham, MA, cat. 11765054), 100 U/mL penicillin-streptomycin (Invitrogen, cat. 15140122), and 2.5% Matrigel (Corning Inc., Corning, NY, cat. 354248) for the first three passages. All PDCs were cultured in complete DMEM/F-12 media containing advanced DMEM/F-12 (Invitrogen, cat. 12634028), 4.9% defined fetal bovine serum, heat inactivated (HyClone Laboratories Inc., Logan, UT, cat. SH30070.03HI), 389 ng/mL hydrocortisone (Sigma-Aldrich, cat. H4001), 9.7 ng/mL human EGF recombinant protein (Invitrogen, cat. PHG0313), 23.4 microg/mL adenine (Sigma-Aldrich, cat. A2786), 97.3 U/mL penicillin-streptomycin (Invitrogen, cat. 15140122), 1.9 mM L-glutamine (Invitrogen, cat. 25030081), and 9.7 microM Y-27632 dihydrochloride (Tocris Bioscience, Bristol, United Kingdom, cat. 1254). The PDCs were cultured in complete DMEM/F12 media without 10 microM Y-27632 dihydrochloride for at least two passages prior to the screen. The established cell lines NCI-H1341 and […] were cultured in DMEM/F-12, HEPES (Invitrogen, cat. 11330032), 5% defined fetal bovine serum (HyClone Laboratories Inc., cat. SH30070.03), ITS premix universal culture supplement [insulin (5 microg/mL), transferrin (5 microg/mL), and selenious acid (5 ng/mL)] […]
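Note: spheroids exposed to compounds for seven days after three days of growth.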

| SMILES | IC50 (curve of compound) | viability, T/C (compound 0.0316 µM) | viability, T/C (compound 0.1 µM) | viability, T/C (compound 0.316 µM) | viability, T/C (compound 1 µM) | viability, T/C (compound 3.16 µM) | viability, T/C (compound 10 µM) | further results |
| --- | --- | --- | --- | --- | --- | --- | --- | --- |
| CC(C)CC(NC(=O)C(Cc1ccccc1)NC(=O)c1cnccn1)B(O)O (stereo not given) | 10.2 nM and 6.92 nM and 5.94 nM | – | – | – | – | – | – | viability, T/C (compound 0.000949 µM): 106% and 109% and 104%; viability, T/C (compound 0.003 µM): 116% and 121% and 106%; viability, T/C (compound 0.00949 µM): 53.1% and 25.4% and 12.2%; viability, T/C (compound 0.03 µM): 3.87% and 2.27% and 1.64%; viability, T/C (compound 0.0949 µM): 0.72% and 0.67% and 0.85%; viability, T/C (compound 0.3 µM): 0.4% and 0.5% and 2.3% |
| CC(C)c1c(-c2ccccc2)nc2c(C#N)c[nH]n2c1=O | > 10000 nM | 113% and 103% (2×) | 117% and 104% and 107% | 105% (2×) and 106% | 115% and 91% and 98.9% | 106% and 102% and 99.9% | 95.3% and 96% and 107% | – |
| CC(CO)NC(=O)c1cc(-c2ccc(Cl)cc2)nn(-c2cnn(C)c2)c1=O (stereo not given) | – | – | 102% [middle of 21 runs] | 98.8% [middle of 21 runs] | 99.2% [middle of 20 runs] | 88.8% [middle of 19 runs] | 70.5% [middle of 19 runs] | IC50 (compound alone, run of 05/31/2022): > 10000 nM |
| CC1(C)CCC(CN2CCN(c3ccc(C(=O)NS(=O)(=O)c4ccc(NCC5CCOCC5)c([N+](=O)[O-])c4)c(Oc4cnc5[nH]ccc5c4)c3)CC2)=C(c2ccc(Cl)cc2)C1 | 6730 nM and 6620 nM and 6410 nM | 104% and 92.6% and 102% | 106% and 105% and 104% | 108% and 109% and 97.2% | 106% and 116% and 102% | 102% and 109% and 94% | 22.7% and 18.6% and 22.2% | – |
| CC1COCCN1c1cc(-c2ccnn2C)c2ccnc(-c3ccn[nH]3)c2n1 (stereo not given) | 58 nM and 54.7 nM and 45.7 nM | 65.1% and 66.1% and 56.9% | 36.3% and 32.1% and 32.4% | 23.2% and 19.6% and 21.7% | 19.2% and 17.7% and 17.8% | – | – | viability, T/C (compound 0.00316 µM): 99.6% and 103% and 96.5%; viability, T/C (compound 0.01 µM): 90.4% and 97.9% and 92.8% |
| CC1COCCN1c1cc(C2(S(C)(=N)=O)CC2)nc(-c2ccnc3[nH]ccc23)n1 (stereo not given) | 4300 nM and 2860 nM and 3080 nM | 98% and 110% (2×) | 93.9% and 96.9% and 110% | 89.8% and 90.3% and 106% | 89.2% and 77.6% and 79.8% | 58% and 44.7% and 50.7% | 27.7% (2×) and 21.3% | – |
| CCN(c1cc(-c2ccc(CN3CCOCC3)cc2)cc(C(=O)NCc2c(C)cc(C)[nH]c2=O)c1C)C1CCOCC1 | > 3000 nM | – | – | – | – | – | – | viability, T/C (compound 0.00949 µM): 98.8% and 103% and 105%; viability, T/C (compound 0.03 µM): 106% and 107% and 104%; viability, T/C (compound 0.0949 µM): 109% and 96.8% and 96.2%; viability, T/C (compound 0.3 µM): 100% and 97.3% and 98.5%; viability, T/C (compound 0.949 µM): 99.8% and 89.8% and 102%; viability, T/C (compound 3 µM): 93.2% and 91% and 90.2% |
| CC[C@@]1(O)C(=O)OCc2c1cc1n(c2=O)Cc2cc3c(CN(C)C)c(O)ccc3nc2-1 | 45.6 nM and 30.7 nM and 24.4 nM | 59.3% and 48.2% and 41.8% | 28.4% and 23.3% and 20.4% | – | – | – | – | viability, T/C (compound 0.000316 µM): 110% and 102% and 99.3%; viability, T/C (compound 0.001 µM): 103% and 107% and 96.5%; viability, T/C (compound 0.00316 µM): 94.2% and 93.7% and 90.6%; viability, T/C (compound 0.01 µM): 83.7% and 86.5% and 77.4% |
| CCc1c2c(nc3ccc(O)cc13)-c1cc3c(c(=O)n1C2)COC(=O)[C@]3(O)CC | 3.42 nM and 4.29 nM and 1.79 nM | – | – | – | – | – | – | viability, T/C (compound 0.000949 µM): 72.1% and 79.3% and 54.5%; viability, T/C (compound 0.003 µM): 53.6% and 63.4% and 47.4%; viability, T/C (compound 0.00949 µM): 25.5% and 20.2% and 23.6%; viability, T/C (compound 0.03 µM): 12.2% and 9.77% and 13%; viability, T/C (compound 0.0949 µM): 6.69% and 4.55% and 7%; viability, T/C (compound 0.3 µM): 3.7% and 2.95% and 3.56% |
| COc1cc(C2c3cc4c(cc3C(OC3OC5COC(C)OC5C(O)C3O)C3COC(=O)C23)OCO4)cc(OC)c1O (stereo not given) | 768 nM and 710 nM and 449 nM | 96% and 96.6% and 96.5% | 93.8% and 79.8% and 87.8% | 66.4% and 73% and 56% | 43.2% and 38.8% and 31.6% | 29% and 26% and 19.7% | 13.7% and 15.4% and 10.6% | – |
| COc1cc(Nc2ncc3c(n2)-c2ccc(Cl)cc2C(c2c(F)cccc2OC)=NC3)ccc1C(=O)O | – | 53.9% and 45.2% and 56.9% | 49.2% and 45% and 39.5% | 49.9% and 53.6% and 45.8% | 57.9% and 51.2% and 43% | 49.8% and 40.5% and 41.5% | 41.7% and 31.2% and 30.7% | – |
